According to paper PMC6437697 (Journal of Medicinal Chemistry, 2019):

Columns and labels:
Assay in all cases: KINOMEscan
[1] = target: T1, ABL1(F317L)-nonphosphorylated (Homo sapiens, UniProt P00519, F317L); type: binding; details: read-out: % control activity remaining
T1 construct: purchased Eurofins DiscoverX KINOMEscan

[2] = target: T2, ABL1(H396P)-nonphosphorylated (Homo sapiens, UniProt P00519, H396P); type: binding; details: read-out: % control activity remaining
T2 construct: purchased Eurofins DiscoverX KINOMEscan

[3] = target: T3, AURKA (Homo sapiens, UniProt O14965); type: binding; details: read-out: % control activity remaining
T3 construct: purchased Eurofins DiscoverX KINOMEscan
T3 sequence (O14965 1-403): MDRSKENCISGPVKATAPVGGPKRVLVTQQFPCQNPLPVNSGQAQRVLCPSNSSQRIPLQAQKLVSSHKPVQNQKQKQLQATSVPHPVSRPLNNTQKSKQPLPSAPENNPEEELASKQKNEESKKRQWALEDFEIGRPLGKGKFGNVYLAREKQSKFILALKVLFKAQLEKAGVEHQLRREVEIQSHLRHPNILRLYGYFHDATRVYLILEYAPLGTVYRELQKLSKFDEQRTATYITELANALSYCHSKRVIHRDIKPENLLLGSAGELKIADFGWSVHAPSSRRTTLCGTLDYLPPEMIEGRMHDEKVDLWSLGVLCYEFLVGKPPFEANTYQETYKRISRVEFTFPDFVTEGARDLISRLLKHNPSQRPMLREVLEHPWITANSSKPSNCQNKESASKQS

[4] = target: T4, AURKC (Homo sapiens, UniProt Q9UQB9); type: binding; details: read-out: % control activity remaining
T4 construct: purchased Eurofins DiscoverX KINOMEscan
T4 sequence (Q9UQB9 1-309): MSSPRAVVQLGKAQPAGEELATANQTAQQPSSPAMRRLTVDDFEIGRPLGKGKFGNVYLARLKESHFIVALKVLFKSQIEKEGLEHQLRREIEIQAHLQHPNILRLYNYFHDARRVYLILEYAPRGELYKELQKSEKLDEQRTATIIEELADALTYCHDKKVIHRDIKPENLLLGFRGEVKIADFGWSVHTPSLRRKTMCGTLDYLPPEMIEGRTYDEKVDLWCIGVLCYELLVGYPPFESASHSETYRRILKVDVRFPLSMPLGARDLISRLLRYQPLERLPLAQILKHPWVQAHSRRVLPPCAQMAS

[5] = target: T5, CAMK1 (Homo sapiens, UniProt Q14012); type: binding; details: read-out: % control activity remaining
T5 construct: purchased Eurofins DiscoverX KINOMEscan

[6] = target: T6, CSNK1G1 (Homo sapiens, UniProt Q9HCP0); type: binding; details: read-out: % control activity remaining
T6 construct: purchased Eurofins DiscoverX KINOMEscan

[7] = target: T7, EGFR(G719S) (Homo sapiens, UniProt P00533, G719S); type: binding; details: read-out: % control activity remaining
T7 construct: purchased Eurofins DiscoverX KINOMEscan

[8] = test system: FLT3(ITD); type: binding, human; details: 1000 nM
[9] = target: T8, ICK (Homo sapiens, UniProt Q9UPZ9); type: binding; details: read-out: % control activity remaining
T8 construct: purchased Eurofins DiscoverX KINOMEscan
T8 sequence (Q9UPZ9 1-632): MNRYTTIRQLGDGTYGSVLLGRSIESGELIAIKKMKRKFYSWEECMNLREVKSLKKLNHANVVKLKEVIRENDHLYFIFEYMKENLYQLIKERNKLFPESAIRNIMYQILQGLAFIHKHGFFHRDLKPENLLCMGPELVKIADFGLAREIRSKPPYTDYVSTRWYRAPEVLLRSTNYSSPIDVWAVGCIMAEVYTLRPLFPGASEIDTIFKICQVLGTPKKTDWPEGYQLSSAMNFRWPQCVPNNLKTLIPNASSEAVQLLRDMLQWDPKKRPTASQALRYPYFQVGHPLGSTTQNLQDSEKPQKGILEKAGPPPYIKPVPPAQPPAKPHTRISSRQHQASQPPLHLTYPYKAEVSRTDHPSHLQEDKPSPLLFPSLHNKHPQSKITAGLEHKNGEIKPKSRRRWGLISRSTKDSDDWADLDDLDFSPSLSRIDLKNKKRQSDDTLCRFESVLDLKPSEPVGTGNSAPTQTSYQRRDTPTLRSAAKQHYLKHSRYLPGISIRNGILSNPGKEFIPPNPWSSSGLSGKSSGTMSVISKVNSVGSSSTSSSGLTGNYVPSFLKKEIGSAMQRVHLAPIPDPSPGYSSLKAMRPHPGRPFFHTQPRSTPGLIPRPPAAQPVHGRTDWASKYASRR

[10] = target: T9, MAP3K4 (Homo sapiens, UniProt Q9Y6R4); type: binding; details: read-out: % control activity remaining
T9 construct: purchased Eurofins DiscoverX KINOMEscan

[11] = target: T10, PIM2 (Homo sapiens, UniProt Q9P1W9); type: binding; details: read-out: % control activity remaining
T10 construct: purchased Eurofins DiscoverX KINOMEscan

[12] = target: T11, PLK4 (Homo sapiens, UniProt O00444); type: binding; details: read-out: % control activity remaining
T11 construct: purchased Eurofins DiscoverX KINOMEscan
T11 sequence (O00444 1-970): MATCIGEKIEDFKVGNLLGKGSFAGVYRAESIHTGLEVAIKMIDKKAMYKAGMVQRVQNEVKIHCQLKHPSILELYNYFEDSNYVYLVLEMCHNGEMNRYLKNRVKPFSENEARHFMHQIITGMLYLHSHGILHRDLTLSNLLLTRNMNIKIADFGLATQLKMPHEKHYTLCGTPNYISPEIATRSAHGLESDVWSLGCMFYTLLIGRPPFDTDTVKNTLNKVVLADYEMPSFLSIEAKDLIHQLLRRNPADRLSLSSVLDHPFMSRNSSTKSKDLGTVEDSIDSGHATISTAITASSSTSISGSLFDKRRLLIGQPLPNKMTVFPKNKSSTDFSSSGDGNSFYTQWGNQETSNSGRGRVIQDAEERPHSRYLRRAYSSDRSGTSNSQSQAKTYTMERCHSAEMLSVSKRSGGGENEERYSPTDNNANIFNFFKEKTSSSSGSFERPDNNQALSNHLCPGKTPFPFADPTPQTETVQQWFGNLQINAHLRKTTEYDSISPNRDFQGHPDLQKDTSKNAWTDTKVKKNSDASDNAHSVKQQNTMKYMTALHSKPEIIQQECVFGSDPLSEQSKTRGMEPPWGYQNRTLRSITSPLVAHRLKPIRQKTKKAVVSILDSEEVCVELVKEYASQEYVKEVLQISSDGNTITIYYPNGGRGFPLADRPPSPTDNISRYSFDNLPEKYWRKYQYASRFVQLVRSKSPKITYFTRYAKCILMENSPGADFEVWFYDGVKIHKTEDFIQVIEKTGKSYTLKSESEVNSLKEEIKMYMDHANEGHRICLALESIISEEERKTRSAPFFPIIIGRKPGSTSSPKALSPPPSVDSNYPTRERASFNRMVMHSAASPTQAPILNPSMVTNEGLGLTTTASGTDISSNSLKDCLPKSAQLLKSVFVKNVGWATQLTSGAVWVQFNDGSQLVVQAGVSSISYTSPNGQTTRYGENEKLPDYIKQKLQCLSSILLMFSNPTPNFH

T9 sequence (Q9Y6R4 whole entry): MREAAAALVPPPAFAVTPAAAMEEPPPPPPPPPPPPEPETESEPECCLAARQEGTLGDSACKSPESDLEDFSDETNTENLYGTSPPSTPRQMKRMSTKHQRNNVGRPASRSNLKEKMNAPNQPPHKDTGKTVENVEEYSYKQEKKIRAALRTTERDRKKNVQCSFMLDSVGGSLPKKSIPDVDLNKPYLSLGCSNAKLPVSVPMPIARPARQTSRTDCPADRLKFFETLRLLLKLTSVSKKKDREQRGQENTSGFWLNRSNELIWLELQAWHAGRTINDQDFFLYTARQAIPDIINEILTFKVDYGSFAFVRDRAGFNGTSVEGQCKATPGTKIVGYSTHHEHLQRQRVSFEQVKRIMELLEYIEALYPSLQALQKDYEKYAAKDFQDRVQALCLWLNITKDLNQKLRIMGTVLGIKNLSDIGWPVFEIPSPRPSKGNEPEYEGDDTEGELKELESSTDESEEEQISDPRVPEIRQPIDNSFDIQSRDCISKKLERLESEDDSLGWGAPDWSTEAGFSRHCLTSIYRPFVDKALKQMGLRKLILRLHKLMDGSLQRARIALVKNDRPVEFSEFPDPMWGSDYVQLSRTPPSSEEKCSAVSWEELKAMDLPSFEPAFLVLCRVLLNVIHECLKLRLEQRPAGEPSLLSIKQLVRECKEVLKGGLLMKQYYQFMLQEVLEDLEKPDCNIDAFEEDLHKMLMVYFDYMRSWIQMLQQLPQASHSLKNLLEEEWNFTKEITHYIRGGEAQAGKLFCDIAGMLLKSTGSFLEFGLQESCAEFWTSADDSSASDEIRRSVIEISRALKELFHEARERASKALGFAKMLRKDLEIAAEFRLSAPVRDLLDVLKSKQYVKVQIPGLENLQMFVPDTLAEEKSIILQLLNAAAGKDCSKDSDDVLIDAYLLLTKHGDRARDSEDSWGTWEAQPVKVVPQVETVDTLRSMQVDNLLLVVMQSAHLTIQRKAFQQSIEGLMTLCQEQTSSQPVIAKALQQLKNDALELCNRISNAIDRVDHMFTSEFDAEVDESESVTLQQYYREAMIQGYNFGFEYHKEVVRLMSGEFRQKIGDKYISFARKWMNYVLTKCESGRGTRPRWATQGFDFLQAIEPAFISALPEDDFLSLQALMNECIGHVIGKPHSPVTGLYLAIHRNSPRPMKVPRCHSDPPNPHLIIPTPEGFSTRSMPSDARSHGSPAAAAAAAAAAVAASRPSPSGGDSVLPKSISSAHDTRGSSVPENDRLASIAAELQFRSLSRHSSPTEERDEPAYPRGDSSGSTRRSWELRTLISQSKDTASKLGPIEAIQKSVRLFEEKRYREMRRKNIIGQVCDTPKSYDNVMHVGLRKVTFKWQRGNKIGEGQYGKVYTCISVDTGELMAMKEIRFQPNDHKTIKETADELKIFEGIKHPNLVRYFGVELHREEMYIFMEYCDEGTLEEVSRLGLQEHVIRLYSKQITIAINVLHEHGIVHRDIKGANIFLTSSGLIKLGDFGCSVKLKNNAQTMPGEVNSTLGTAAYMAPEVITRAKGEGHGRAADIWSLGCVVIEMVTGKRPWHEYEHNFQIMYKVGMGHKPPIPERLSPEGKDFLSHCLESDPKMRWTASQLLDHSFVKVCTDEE
T6 sequence (Q9HCP0 whole entry): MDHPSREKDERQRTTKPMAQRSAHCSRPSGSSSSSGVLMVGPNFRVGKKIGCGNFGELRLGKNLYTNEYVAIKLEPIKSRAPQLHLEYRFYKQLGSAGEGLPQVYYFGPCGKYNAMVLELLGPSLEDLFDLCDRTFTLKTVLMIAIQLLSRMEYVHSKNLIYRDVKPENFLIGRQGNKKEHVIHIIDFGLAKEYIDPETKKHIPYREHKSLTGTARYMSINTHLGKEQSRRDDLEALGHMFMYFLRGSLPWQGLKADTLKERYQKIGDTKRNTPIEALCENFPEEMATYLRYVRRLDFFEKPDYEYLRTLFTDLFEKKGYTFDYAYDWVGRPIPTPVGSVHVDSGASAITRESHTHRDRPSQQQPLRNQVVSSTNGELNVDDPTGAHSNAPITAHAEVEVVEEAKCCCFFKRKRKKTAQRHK
T7 sequence (P00533 25-1210 G719S limits assumed): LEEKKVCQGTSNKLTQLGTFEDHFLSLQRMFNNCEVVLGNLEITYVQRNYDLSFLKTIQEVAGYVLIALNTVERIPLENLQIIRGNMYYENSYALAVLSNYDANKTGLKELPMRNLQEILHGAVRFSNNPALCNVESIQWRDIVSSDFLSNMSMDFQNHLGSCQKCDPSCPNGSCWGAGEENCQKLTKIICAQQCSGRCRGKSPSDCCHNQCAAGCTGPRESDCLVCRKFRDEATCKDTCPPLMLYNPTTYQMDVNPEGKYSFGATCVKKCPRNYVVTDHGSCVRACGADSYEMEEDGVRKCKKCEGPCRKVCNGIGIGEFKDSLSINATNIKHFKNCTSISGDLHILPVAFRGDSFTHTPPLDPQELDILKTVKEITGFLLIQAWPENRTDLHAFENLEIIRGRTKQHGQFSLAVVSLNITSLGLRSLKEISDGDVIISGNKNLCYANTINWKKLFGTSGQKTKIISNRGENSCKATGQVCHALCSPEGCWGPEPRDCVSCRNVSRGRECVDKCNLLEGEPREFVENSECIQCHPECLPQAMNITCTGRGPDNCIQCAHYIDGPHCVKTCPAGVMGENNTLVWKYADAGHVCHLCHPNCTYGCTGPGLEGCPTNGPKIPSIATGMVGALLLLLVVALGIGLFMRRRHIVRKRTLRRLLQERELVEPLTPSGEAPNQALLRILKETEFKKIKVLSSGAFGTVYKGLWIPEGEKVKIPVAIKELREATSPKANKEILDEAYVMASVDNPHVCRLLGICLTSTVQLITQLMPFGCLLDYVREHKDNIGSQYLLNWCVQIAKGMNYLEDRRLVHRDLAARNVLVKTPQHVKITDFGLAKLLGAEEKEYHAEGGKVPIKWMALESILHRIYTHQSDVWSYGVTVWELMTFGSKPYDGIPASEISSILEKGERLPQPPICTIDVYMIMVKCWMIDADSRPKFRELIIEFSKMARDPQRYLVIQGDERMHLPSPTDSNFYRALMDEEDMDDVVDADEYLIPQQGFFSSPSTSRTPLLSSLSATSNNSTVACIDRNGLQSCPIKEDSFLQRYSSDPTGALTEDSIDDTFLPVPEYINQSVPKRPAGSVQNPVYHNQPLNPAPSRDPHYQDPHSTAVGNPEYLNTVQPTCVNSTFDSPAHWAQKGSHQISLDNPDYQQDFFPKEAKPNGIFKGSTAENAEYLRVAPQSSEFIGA
T10 sequence (Q9P1W9 whole entry): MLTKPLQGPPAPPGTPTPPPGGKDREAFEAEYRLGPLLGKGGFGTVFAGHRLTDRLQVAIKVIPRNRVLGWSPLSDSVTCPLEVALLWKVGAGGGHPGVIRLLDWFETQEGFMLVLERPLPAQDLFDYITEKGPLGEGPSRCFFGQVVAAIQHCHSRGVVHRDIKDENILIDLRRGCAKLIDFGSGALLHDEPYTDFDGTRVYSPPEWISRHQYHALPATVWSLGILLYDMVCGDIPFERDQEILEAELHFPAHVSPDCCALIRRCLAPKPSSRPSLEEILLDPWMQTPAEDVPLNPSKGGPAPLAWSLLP
T5 sequence (Q14012 whole entry, looked up): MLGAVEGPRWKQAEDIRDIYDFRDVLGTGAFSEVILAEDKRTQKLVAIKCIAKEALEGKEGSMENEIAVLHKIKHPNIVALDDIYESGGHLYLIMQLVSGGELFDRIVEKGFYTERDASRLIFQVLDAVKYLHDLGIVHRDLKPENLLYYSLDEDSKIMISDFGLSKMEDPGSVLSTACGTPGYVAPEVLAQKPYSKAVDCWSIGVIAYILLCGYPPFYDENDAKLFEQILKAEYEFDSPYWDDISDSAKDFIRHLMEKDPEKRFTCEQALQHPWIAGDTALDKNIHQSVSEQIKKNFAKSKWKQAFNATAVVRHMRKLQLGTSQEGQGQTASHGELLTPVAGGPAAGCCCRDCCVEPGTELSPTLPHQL

Row | Compound | remaining binding at 1 µM [1] [%] | remaining binding at 1 µM [2] [%] | remaining binding at 1 µM [3] [%] | remaining binding at 1 µM [4] [%] | remaining binding at 1 µM [5] [%] | remaining binding at 1 µM [6] [%] | remaining binding at 1 µM [7] [%] | % control activity remaining [8] [%] | remaining binding at 1 µM [9] [%] | remaining binding at 1 µM [10] [%] | remaining binding at 1 µM [11] [%] | remaining binding at 1 µM [12] [%]
1 | Clc1cc(NCC2CC2)c2ncc(-c3ccc4[nH]ncc4c3)n2n1 [compound 2, 6-Chloro-N-(cyclopropylmethyl)-3-(1H-indazol-5-yl)imidazo[1,2-b]pyridazin-8-amine] | 68 | 74 | 90 | 92 | 100 | 100 | 85 | 5.6 | 80 | 74 | 100 | 87
2 | O=C(CN1CCOCC1)N[C@H]1CC[C@H](Nc2cc(Cl)nn3c(-c4ccc5[nH]ncc5c4)cnc23)CC1 [compound 26] | 26 | 16 | 98 | 58 | 77 | 95 | 97 | 0.25 | 74 | 86 | 100 | 100
3 | CN1CCC(CNc2cc(Cl)nn3c(-c4cc5nc(Nc6ccccc6)[nH]c5cc4F)cnc23)CC1 [compound 31, 6-Chloro-3-(6-fluoro-2-(phenylamino)-1H-benzo[d]imidazol-5-yl)-N-((1-methylpiperidin-4-yl)methyl)imidazo[1,2-b]pyridazin-8-amine] | 76 | 42 | 75 | 92 | 84 | 100 | 71 | 91 | 97 | 86 | 100 | 99
